The values below come from US8044070B2, “Heteroaryloxy nitrogenous saturated heterocyclic derivative” (MSD K.K., priority 2003, dated 2011).

Broadly, the bioavailability is the share of a dose that reaches the circulation, judged against a reference dose that is usually intravenous. The low end stands for little systemic uptake, the high end for much systemic uptake.

Where two headings read alike, the source gives them in different places.

Series [1] addresses T1, histamine-3 receptor (Homo sapiens, UniProt Q9Y5N1).
T1 construct: expressed in transfected cells; host or cells: HEK293 and CHO-K1 (membrane specimen)
Kind of series: Histamine analogue-binding inhibition test ([35S]GTPγS binding in presence of R-methylhistamine, SPA). The class given is biochemical. The following applies: 20 nM R-methylhistamine, 25° C., 3 hours; read-out: IC50 (nM) to specific [35S]GTPγS binding. The source says: (§1) A cDNA sequence coding for a human histamine-3 receptor [see International Patent Application WO00/39164) was cloned with expression vectors pCR2.1, pEF1x (by Invitrogen) and pCI-neo (by Promega). The resulting expression vector was transfected into host cells, HEK293 and CHO-K1 (American Type Culture Collection), according to a cationic lipid process [see Proceedings of the National Academy of Sciences of the United States of America, Vol., 84, p. 7413 (1987)] to obtain histamine-3 receptor expression cells.
A membrane specimen prepared from the cells having expressed a histamine-3 receptor was incubated in an assay buffer (50 mM Tris buffer, 100 mM NaCl, 5 mM MgCl2, pH 7.4) along with a test compound, 20 nM R-methylhistamine (histamine analogue, by Sigma), 10 μM GDP (guanine-nucleotide diphosphate, by Sigma), […] [^35S] GTPγS (guanine-nucleotide triphosphate analogue, by Amersham) and SPA resin (wheatgerm agglutinin SPA beads, by Amersham) therein on a 96-well optiplate (by Packard) at 25° C. for 3 hours and then centrifuged at 3,000 rpm, and its activity was counted with Topcount (by Packard). The non-specific binding was determined in the presence of 10 μM GTPγS (by Sigma), and the 50% inhibitory concentration (IC50) of the test compound to specific N[^35S] GTPγS binding was calculated [see British Journal of Pharmacology, Vol. 135, p. 383 (2002)].
Background: GTPγS resists hydrolysis and so accumulates on activated G proteins.

In series [2] the target is T1, histamine-3 receptor. Description: Histamine analogue-binding inhibition test ([3H]N-α-methylhistamine binding to membrane specimen). The following applies: membrane of histamine-3 receptor expressing cells, 25° C., 2 hours; read-out: 50% inhibitory concentration (IC50) to specific N-α-methylhistamine binding.
From the text: as §1
A membrane specimen prepared from the cells having expressed a histamine-3 receptor was incubated in an assay buffer (50 mM Tris buffer, pH 7.4) along with a test compound and 20,000 cpm of [^3H]-α-methylhistamine (by NEN) therein at 25° C. for 2 hours, and then filtered through a glass filter GF/C. This was washed with 50 mM Tris buffer (ph 7.4), and the radioactivity on the glass filter was measured. The non-specific binding was determined in the presence of 10 μM thioperamide (by SIGAM), and the 50% inhibitory concentration (IC50) of the test compound to specific N-α-methylhistamine binding was calculated [see Molecular Pharmacology, Vol. 55, p. 1101 (1999)].

The nature of series [3]: Test for internal kinetics. In kind it is in vivo, rat. The following applies: SD male rats, oral or intravenous administration. As for the experimental part:
A test compound was orally or intravenously administered to SD male rats (7 to 10 weeks-age, 200 to 400 g) kept away from eating and drinking overnight, and using a heparinization capillary within a predetermined period of time, about 100 μl of the blood was collected from them via their tail vein. The blood was centrifuged (4° C., 6000 rpm, 10 minutes) to collect its plasma. Ethanol (including an internal standard substance) was added to the plasma in an amount of 3 times that of the plasma, and stirred, and left statically at −20° C. for 20 minutes, and then this was centrifuged (4° C., 10,000 rpm, 10 minutes). The supernatant was analyzed through LC/MS/MS, and the plasma concentration of the compound was quantified according to a relative calibration curve method.

Series [4] can be described thus: Brain/cerebrospinal fluid migration test. The class given is in vivo, rat. The note with it: SD male rats, 2 hours after oral administration (10 mg/kg); for concentration at 2 h: rat. The source says:
A test compound was orally or intravenously administered to SD male rats (7 to 10 weeks-age, 200 to 400 g), and while anesthetized with ether for a predetermined period of time, the whole blood was collected from the abdominal aorta of the rats, using a heparin-processed syringe. Next, the brain skin was cut opened and a 30 G needle for dental use was pierced between the cervical vertebrae and inserted into the subarachnoid cavity. Through the tube connected with the dental 30 G needle, from 50 to 100 μl of the cerebrospinal fluid was collected into a 1-ml syringe, and then the brain was taken out. The blood sample was centrifuged (4° C., 6000 rpm, 10 minutes), and the resulting plasma was stirred with ethanol (including an internal standard substance) added thereto in an amount of 3 times the plasma. 2 ml of water was added to the brain sample and homogenized, and a part of the resulting mixture was stirred with ethanol (including an internal standard substance) added thereto in an amount of 3 times the mixture. These samples were kept at −20° C. for 20 minutes, and then centrifuged (4° C., 12,000 g, 10 minutes), and the resulting supernatant was analyzed through LC/MS/MS. According to a relative calibration curve method, the concentration of the test compound in the plasma, the brain and the cerebrospinal fluid was quantified.

T1 sequence (Q9Y5N1 whole entry): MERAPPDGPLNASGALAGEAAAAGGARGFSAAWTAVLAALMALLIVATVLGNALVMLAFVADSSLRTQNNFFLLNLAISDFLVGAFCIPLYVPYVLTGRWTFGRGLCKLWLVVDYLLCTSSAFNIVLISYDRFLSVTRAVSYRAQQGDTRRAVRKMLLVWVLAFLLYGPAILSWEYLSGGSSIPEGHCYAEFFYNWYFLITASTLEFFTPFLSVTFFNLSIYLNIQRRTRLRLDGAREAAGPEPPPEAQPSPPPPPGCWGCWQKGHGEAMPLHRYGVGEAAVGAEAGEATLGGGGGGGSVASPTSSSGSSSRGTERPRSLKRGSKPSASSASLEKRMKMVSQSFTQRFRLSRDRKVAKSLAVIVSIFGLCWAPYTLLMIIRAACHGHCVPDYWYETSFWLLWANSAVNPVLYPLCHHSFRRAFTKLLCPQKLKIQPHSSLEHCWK

As to `c1cn2cnnc2cc1-c1cnc(OC2CCN(C3CCCC3)CC2)nc1` [Example 60, 2-(1-cyclopentylpiperidin-4-yloxy)-5-(1,2,4-triazolo[4,3,a]pyridin-7-yl)pyrimidine], the IC50 on histamine-3 receptor [1] amounted to 1.2 nM. The same measure, in the same setting: with `CC(C)N1CCC(Oc2ccc(-c3ccc(=O)n(C)c3)cn2)CC1` [Example 68, 2-(1-isopropylpiperidin-4-yloxy)-5-{1-methyl-1H-pyridin-2-on-5-yl}pyridine] the figure was 1.4 nM; with `FC(F)(F)c1ccc(-c2cnc(OC3CCN(C4CCCC4)CC3)nc2)cc1` [Example 23, 2-(1-cyclopentylpiperidin-4-yloxy)-5-(4-trifluoromethylphenyl)pyrimidine], 1.4 nM. Take `CS(=O)(=O)c1ccc(-c2cnc(OC3CCN(C4CCCC4)CC3)nc2)cc1` [Example 37, 2-(1-cyclopentylpiperidin-4-yloxy)-5-{4-(methylsulfonyl)phenyl}pyrimidine]: the IC50 at histamine-3 receptor [1] turned out to be 1.3 nM. On the same count and under the same terms, with `Cn1cc(-c2ccc(OC3CCN(C4CCC4)CC3)nc2)ccc1=O` [Example 65, 2-(1-cyclobutylpiperidin-4-yloxy)-5-{1-methyl-1H-pyridin-2-on-5-yl}pyridine] the figure was 0.45 nM. For `N#Cc1ccc(-c2cnc(OC3CCN(C4CCCC4)CC3)nc2)cc1` [Example 1, 2-(1-cyclopentylpiperidin-4-yloxy)-5-(4-cyanophenyl)pyrimidine], the IC50 at histamine-3 receptor [2] came to 15 nM; on histamine-3 receptor [1] it was 1.9 nM. Further, the “half-value period in blood” value in series [3] worked out at 5.3 h. The compound also yielded a bioavailability in series [3] (rat, plasma) of 53%. In series [4], this compound returned a brain concentration of 6.18 nmol/g. For the same compound, the concentration at 2 h in series [4] (cerebrospinal fluid, read-out: cerebrospinal fluid concentration) was found to be 0.128 µM; in series [4] (plasma, read-out: plasma concentration), 0.54 µM. On to `O=C(c1ccc(-c2cnc(OC3CCN(C4CCCC4)CC3)nc2)cc1)N1CCCC1` [Example 11, 2-(1-cyclopentylpiperidin-4-yloxy)-5-{4-(pyrrolidin-1-ylcarbonyl)phenyl}pyrimidine], for which the IC50 on histamine-3 receptor [1] came out at 1.2 nM.
